In patent US8389468B2, “Approach to the treatment of compartment syndrome” (Lantmannen AS-Faktor AB, priority 2006, dated 2013):

Tests used:
[1] = tested on: HSV-1 infected rats; assay: Survival of rats infected with HSV-1; format: in vivo, rat; settings: 10 pg or 25 pg AF-16 intranasally twice daily
Experimental: FIG. 3: Survival frequency of rats infected with HSV-1 by the administration of a virus solution in the right nostril on day 0. Half of the rats (n=15) were treated twice daily with 1 μg AF-16 (upper line), a peptide composed of the amino acids VCHSKTRSNPENNVGL (SEQ ID NO: 1), twice daily intranasally, while the other half received just the vehicle after the HSV-1 infection (lower line). Of those treated with just the vehicle only 10% survived day 14, contrasting to the 60% of those treated with AF-16.
Therefore, rats were infected by instillation in their right nostril of 25 μL of a solution of the herpes simplex virus type 1 (HSV-1; strain 2762, batch 041028; 1.7×10^7 PFU/mL). Half of the animals received 10 min later 25 μL (1, 10 or 25 pg) of AF-16 in their right nostril, and had thereafter the same dose of AF-16 instilled every morning at 8 AM and every night at 6 PM until the experiment was terminated on day 14. The other half of the group of HSV-1 infected rats received 25 μL of the vehicle, PBS, at the same time schedule. The animals were several times daily closely watched for signs of behavioral dysfunction or general sickness. If so, the animals were sacrificed. The FIG. 3 is illustrating the survival rates for the animals, all being infected with HSV-1. […]

[2] = tested on: pericardium; assay: Traumatized pericardium, fluid accumulation; format: in vivo, rat; settings: treated for a week after rubbing of pericardium
Description: Adult rats had experimentally a CC condition induced affecting the pericardium and assessed with regard to effects of treatment with the peptide AF-16. The pericardial cavity is delimiting the heart, forming a sac filled with a minimal volume of fluid, enabling accommodation of the sliding movements resulting from the sudden and forceful contractions of the heart. The pericardial cavity is towards its periphery enclosed by a parietal membrane rich in collagen. On anaesthetized rats the pericardium was opened surgically, through a small “window” in the diaphragm and mediastinum. The inside of the pericardium was traumatized by rubbing it surgically through the incision. These animals were divided in two groups, one treated with AF-16 while the other had just the vehicle, PBS. […] In contrast, those animals that after the rubbing had been treated with the vehicle had their pericardium filled with fluid under pressure, and had further numerous fibrin strands and inflammatory cells. Additionally, the parietal pericardial envelop was swollen, inflamed and infiltrated by numerous enlarged, in parts newly formed blood vessels.

With VCHSKTRSNPENNVGL [AF-16] the “signs of neurological dysfunction” value [1] was “none showed any signs of neurological dysfunction”, the “survival at day 14” value [1] was “all the infected animals survived” and the “fluid in pericardial cavity” value [2] was “just minor accumulation of fluid in their pericardial cavity, at low pressure”.
